For experiment [1] the following is noted: early use after coronary artery bypass surgery; cited from earlier work.
Experiment [2] concerns enriched circulating tumour cells (CTCs). The experiment is described as follows: Enriched CTCs from a patient with colorectal cancer cultured with IL-6, IL-8 or PDGFBB (EpCAM/CD133 flow cytometry). The format is cell-based, human. Conditions: for EpCAM+CD133+ gated subpopulation / EpCAM+CD133− gated subpopulation / EpCAM−CD133+ gated subpopulation / EpCAM−CD133− gated subpopulation: colorectal cancer patient. An excerpt: A blood sample was collected from a patient with colorectal cancer six days after surgery, Blood samples were enriched for CTCs using RosetteSep CD 56 kit according to standard protocol. Prior to cell culture, cells were stained with the following antibody cocktail: EpCAM A488, CD133PE, CD 45 PerCP Cy5.5, and Lgr5-PE-Vio770. Cells were either cultured in low attachment well plates without cytokines (control cells) or with three different cytokines (IL-6, IL-8 or PDGFBB).
Flow cytometry data was analysed using IDEAS software. Double events, out of focus events, CD45PercPCy5.5 positive cells, dead cells and non-nucleated events were eliminated from the fluorescence analysis of the cell population. Hoescht 33258 dye was used to stain nuclei of enriched CTCs. All experiments were stained with a fixable live/dead dye eFluor 506 to exclude dead cells.
In general terms: A flow cytometer gives signals particle by particle.

The subject of experiment [3] is B16 amelanotic melanoma model. Conditions: cited from earlier work.
A further experiment deals with HCT-15 cells. Nature of the experiment: Cell proliferation / cell subpopulations in HCT-15 cell line after cytokines and cytokine cocktails (flow cytometry). The format is cell-based. On the set-up: unit not given here. As to conditions: HCT-15 cells after exposure to cytokine combinations. The procedure: Cell proliferation of cancer and/or cancer stem cell populations with selected cytokine and cytokine cocktails on serum starved colorectal carcinoma cell lines. Prior to incubation cells were stained with a cell proliferation dye, which binds stoichiometrically to DNA. Intensity of the dye decreased upon cell division thereby signifying cell proliferation.
Two authenticated colorectal carcinoma cell lines, HCT-15 and SW-620, were used to test the effect of different cytokine and cytokine cocktails, including IL-6, HGF, PGE-2, TGF-beta and MMP-9 alone or in a cocktail, on cell proliferation, EMT and cancer stem cell populations.
In order to evaluate stem cell populations, cells were synchronized by serum starvation for 72 hours before seeding in 24-well ultra low attachment plates at a density of 200,000 cells/well. Cells were then detached using trypsin EDTA and washed twice with PBS (without Calcium or Magnesium). A cell proliferation dye, eFluor 450 was used to label cells. Cells were grown with DMEM with high glucose and 2 mM Gluatmine without FBS in the presence of selected cytokines and or cytokine cocktails over a period of 72 hrs.
Cells that were grown in 5% serum were stained with the following antibody cocktails: CD24FITC, CD44PE and CD24FITC, CD133PE. Cells were also stained with a fixable live/dead efluor dye 506 to exclude dead cells. In parallel, cells were grown in the presence of 5% serum to evaluate CSC markers.
(§1) Cells were fixed in 1% Paraformaldehyde for 15 minutes at room temperature and run on Flowsight using 2 lasers (488 nm at 60 mW and 405 nm at 30 mW). For cell lines, 100,000 events were collected whilst for enriched CTCs all events were collected until the sample finished.
Flow cytometry data was analysed using IDEAS software. Double events, out of focus events, CD45PerePCy5.5 positive cells (in case of enriched CTCs), dead cells and non-nucleated events were eliminated from the fluorescence analysis of the cell population. FIG. 2 depicts scatterplots of flow cytometry experiments showing the enriched CTCs stained with an antibody containing CD44 after treatment with various cytokines and cytokine cocktails. Hoescht 33258 dye was used to stain nuclei in the case of the HCT-15 cell line and enriched CTCs. All experiments were stained with a fixable live/dead dye eFluor 506 to exclude dead cells.
To evaluate which cocktail combinations were most likely involved in cell proliferation of presumed quiescent stem cells or de-differentiated stein cell-like cells, four cytokines, IL-6, HGF, PGB-2 and TO were added singly or in pairs to HCT-15 cells. Results of combinations that influenced cell proliferation of HCT-15 cells in culture are presented. […] FIG. 4 depicts cell proliferation of subpopulations in the HCT-15 cell line after exposure to various cytokines and cytokine cocktails.

Experiment [4] concerns enriched circulating tumour cells (CTCs). The experiment is described as follows: Cell proliferation / cancer stem cell markers in enriched CTCs from a patient with metastatic prostate cancer cultured with cytokine cocktails. Format: cell-based, human. Conditions: for EpCAM+CD133+ gated subpopulation / EpCAM+CD133− gated subpopulation / EpCAM−CD133+ gated subpopulation / EpCAM−CD133− gated subpopulation: enriched CTCs (metastatic prostate cancer patient) cultured with cytokine or cytokine cocktail, flow cytometry, antibody cocktail EpCAM A488, CD133 PE, CD45 PerCPCy5.5, percentages of gated subpopulations; for Cell population EpCAM+CD44+ / Cell population EpCAM+CD44− / Cell population EpCAM−CD44+ / Cell population EpCAM−CD44−: metastatic prostate cancer patient, cell culture period 8 days; for proliferation of EpCAM-CD44+ cell sub-population: no serum, no cytokines 2.2%. The procedure:
as §1
Flow cytometry data was analysed using IDEAS software. Double events, out of focus events, CD45PerePCy5.5 positive cells (in case of enriched CTCs), dead cells and non-nucleated events were eliminated from the fluorescence analysis of the cell population. FIG. 2 depicts scatterplots of flow cytometry experiments showing the enriched CTCs stained with an antibody containing CD44 after treatment with various cytokines and cytokine cocktails.
In order to determine if selected cytokines influence cell proliferation of circulating tumour cells (CTCs), whole blood was collected from a patient with metastatic prostate cancer. Circulating tumour cells were enriched from whole blood using RosetteSep CTC Enrichment cocktail. Briefly, samples of whole blood were incubated with RosetteSep (anti CD 56 for 20 minutes at room temperature). Phosphate buffered saline containing 2% Fetal Bovine Serum was added to the samples and layered on a Ficoll Paque gradient. After centrifugation, the supernatant which contained CTCs was washed twice with PBS containing 2% FBS. Equal volumes of the cell suspension were seeded into a 24-well ultra-low attachment polystyrene plate. […] FIG. 3 depicts scatterplots of flow cytometry experiments enriched CTCs stained with an antibody containing CD133 after treatment with various cytokines and cytokine cocktails.
FIG. 6 depicts cell proliferation of subpopulations in cultured CTCs after exposure to various cytokines and cytokine cocktails. Cells were stained using an antibody containing CD44 PE.
Cells were stained using an antibody containing CD133 PE.

Another experiment relates to SW-620 cells. The experiment is described as follows: SW-620 cells treated with cytokines then Irinotecan; flow cytometry for stem cell markers and apoptosis. Format: cell-based, human. As to conditions: SW-620, preliminary data. The procedure: SW-620 cells, a human colorectal adenocarcinoma cell line, were treated with cytokines alone or in combination including IL-6, TGF-beta, HGF, PGE-2, IL-6+PGE-2 and TGF-beta+HGF for 24 hours and compared to untreated SW-620 cells as control, Some treated and untreated SW-620 cells were then exposed to 2 μM Irinotecan for 36 hours at which point cells were harvested for flow cytometry to assess for stem cell markers and markers of apoptosis. The percentage of CD44+CD133− cells following treatment with various cytokine and cytokine cocktails is depicted in FIG. 10. Compared to non-cytokine treated cells, combinations with IL-6+PGE-2, and TGF-beta+HGF increased the number and percentage of cells that were CD44+CD133− as shown in FIG. 10 (stem cells). FIG. 11 depicts the percentage of CD44+CD133− cells following treatment with various cytokines and Irinotecan. Treatment with IL-6+Irinotecan and TGF+Irinotecan increased the percentage of CD44+CD133− stem cells to 2% (from zero in non-treated control cells) as shown in FIG. 11. FIG. 12 depicts the percentage of CD44+CD133− cells following treatment with various cytokine cocktails and Irinotecan. A combination of TGF+HGF+Irinotecan increased the percentage of CD44+CD133− stem cells to 2% (from zero in non-treated control cells) as shown in FIG. 12. […]

A further experiment has as its system breast cancer. Conditions: perioperative, 9-18 month period of greatest risk, compared to other analgesics or NSAIDs post-operatively; cited from earlier work.

As to `CC(=O)Oc1ccccc1C(=O)O` [aspirin], in experiment [1], the “survival compared to no aspirin” value was “superior survival”.
On to “Il-8: cytokine IL-8 added to cultured CTCs”, for which, in experiment [2], the “EpCAM+CD133+ gated subpopulation” value is given as 0.13 percentages of gated subpopulations, the “EpCAM+CD133− gated subpopulation” value is recorded as 2.51 percentages of gated subpopulations, the “EpCAM−CD133+ gated subpopulation” value is reported as 0.09 percentages of gated subpopulations and the “EpCAM−CD133− gated subpopulation” value was 90.8 percentages of gated subpopulations.
Turning to `CCCCC[C@H](O)/C=C/[C@@H]1[C@H]2C/C(=C/CCCC(=O)O)O[C@H]2C[C@H]1O` [prostacyclin], in experiment [3], the hepatic metastases result was “complete elimination” and the pulmonary metastases result was “reduction”.
Take “HGF: Hepatocyte Growth Factor, cytokine added to cultured cancer cells”: in the experiment with HCT-15 cells, the “CD24+CD44− cell subpopulation” value worked out at 58.6, the “CD44+CD24+ cell subpopulation” value stood at 3.29, the “CD44+CD24− cell subpopulation” value was 0.31 and the “CD44−CD24− cell subpopulation” value amounted to 35.9. Further, in experiment [4], the “EpCAM+CD133+ gated subpopulation” value was found to be 17.2%, the “EpCAM+CD133− gated subpopulation” value was found to be 0.2%, the “EpCAM−CD133+ gated subpopulation” value amounted to 80.8% and the “EpCAM−CD133− gated subpopulation” value worked out at 1.58%. Besides, in experiment [4] (enriched CTCs), the “Cell population EpCAM+CD44+” value is 16.8 percentage of gated cells, the “Cell population EpCAM+CD44−” value was 4.89 percentage of gated cells, the “Cell population EpCAM−CD44+” value is reported as 2.12 percentage of gated cells and the “Cell population EpCAM−CD44−” value is 74.9 percentage of gated cells.
“IL-6: cytokine Interleukin 6 added to cultured cancer cells”: in the experiment with HCT-15 cells, the “CD24+CD44− cell subpopulation” value worked out at 49.1, the “CD44+CD24+ cell subpopulation” value came to 5.63, the “CD44+CD24− cell subpopulation” value is given as 1.35 and the “CD44−CD24− cell subpopulation” value was determined as 43.2. In experiment [4], the “EpCAM+CD133+ gated subpopulation” value was found to be 23.5%, the “EpCAM+CD133− gated subpopulation” value is recorded as 0%, the “EpCAM−CD133+ gated subpopulation” value is 74.7% and the “EpCAM−CD133− gated subpopulation” value is on record as 1.46%. Besides, in experiment [4] (enriched CTCs, 8 days culture), the “percentage of cells positive for both EpCAM and CD44” value is “highest”; the “proliferation of EpCAM-CD44+ cell sub-population” value is listed as 6.14 % gated. In experiment [4] (enriched CTCs), the “Cell population EpCAM+CD44+” value was 35.6 percentage of gated cells, the “Cell population EpCAM+CD44−” value was 2.66 percentage of gated cells, the “Cell population EpCAM−CD44+” value is recorded as 6.14 percentage of gated cells and the “Cell population EpCAM−CD44−” value was 55 percentage of gated cells. Also, in experiment [2], the “EpCAM+CD133+ gated subpopulation” value was 0.1 percentages of gated subpopulations, the “EpCAM+CD133− gated subpopulation” value is 2.98 percentages of gated subpopulations, the “EpCAM−CD133+ gated subpopulation” value is reported as 0.12 percentages of gated subpopulations and the “EpCAM−CD133− gated subpopulation” value is recorded as 90.5 percentages of gated subpopulations. Further, the “increase in the EpCAM+CD133− subpopulation (significance, p<0.05)” value in experiment [2] (compared to control) is listed as “statistically significant”. The “enrichment of Irinotecan treated cells for cancer stem cells above non-cytokine treated controls” value with SW-620 cells is listed as “enriched”.
Regarding `CCCCC[C@H](O)/C=C/[C@H]1[C@H](O)CC(=O)[C@@H]1C/C=C\CCCC(=O)O` [PGE-2, prostaglandin E2, reference compound], in the experiment with HCT-15 cells, the “CD24+CD44− cell subpopulation” value worked out at 58.7, the “CD44+CD24+ cell subpopulation” value was found to be 7.3, the “CD44+CD24− cell subpopulation” value stood at 0.61 and the “CD44−CD24− cell subpopulation” value worked out at 32.4. In experiment [4], the “EpCAM+CD133+ gated subpopulation” value came to 10.4%, the “EpCAM+CD133− gated subpopulation” value stood at 0%, the “EpCAM−CD133+ gated subpopulation” value is 86.7% and the “EpCAM−CD133− gated subpopulation” value is 2.61%. Besides, the “proliferation of EpCAM-CD44+ cell sub-population” value in experiment [4] (enriched CTCs, 8 days culture) is listed as 4.23 % gated. For the same molecule, in experiment [4] (enriched CTCs), the “Cell population EpCAM+CD44+” value was 27.2 percentage of gated cells, the “Cell population EpCAM+CD44−” value is 1.75 percentage of gated cells, the “Cell population EpCAM−CD44+” value is reported as 4.23 percentage of gated cells and the “Cell population EpCAM−CD44−” value is 65.5 percentage of gated cells. The “enrichment of Irinotecan treated cells for cancer stem cells above non-cytokine treated controls” value in the experiment on SW-620 cells is reported as “enriched”.
Regarding `O=C(c1ccccc1)c1ccc2n1CCC2C(=O)O` (stereo not shown) [ketorolac], in the experiment on breast cancer, the reduction in relapses is 5 fold.

B1: PDGFBB: Platelet derived growth factor BB added to cultured CTCs (protein, UniProt P01127 82-190, looked up)
Platelet-derived growth …: SLGSLTIAEPAMIAECKTRTEVFEISRRLIDRTNANFLVWPPCVEVQRCSGCCNNRNVQCRPTQVQLRPVQVRKIEIVRKKPIFKKATVTLEDHLACKCETVAAARPVT
modifications: BB homodimer
notes: Platelet derived growth factor BB added to cultured CTCs
With B1, in experiment [2], the “EpCAM+CD133+ gated subpopulation” value is given as 0.18 percentages of gated subpopulations, the “EpCAM+CD133− gated subpopulation” value is reported as 2.29 percentages of gated subpopulations, the “EpCAM−CD133+ gated subpopulation” value is 0.1 percentages of gated subpopulations and the “EpCAM−CD133− gated subpopulation” value was 90.5 percentages of gated subpopulations.

(Values after patent US20180194836A1, “PREVENTION OF METASTASIS AND RECURRENCE AFTER PRIMARY CANCER TREATMENT” (ENCYT TECHNOLOGIES, INC., priority 2014, published 2018).)
